Values of other authors as cited in article PMC9851200, “Multiparameter phenotypic screening for endogenous TFEB and TFE3 translocation identifies novel chemical series modulating lysosome function” (Autophagy, 2022).

Key:
Design in all cases: method as in original PKIS2 published data
[1] = biological target: kinases (KINOMEscan panel) (Homo sapiens, UniProt P06213); conditions: kinase INSR; Published KINOMEscan; ref original PKIS2 published data; cited from earlier work
[2] = biological target: kinases (KINOMEscan panel) (Homo sapiens, UniProt Q9P0L2); conditions: Published KINOMEscan; ref original PKIS2 published data; cited from earlier work
Chain of kinases (KINOMEscan panel) (Homo sapiens, UniProt Q9P0L2) (Q9P0L2 whole entry): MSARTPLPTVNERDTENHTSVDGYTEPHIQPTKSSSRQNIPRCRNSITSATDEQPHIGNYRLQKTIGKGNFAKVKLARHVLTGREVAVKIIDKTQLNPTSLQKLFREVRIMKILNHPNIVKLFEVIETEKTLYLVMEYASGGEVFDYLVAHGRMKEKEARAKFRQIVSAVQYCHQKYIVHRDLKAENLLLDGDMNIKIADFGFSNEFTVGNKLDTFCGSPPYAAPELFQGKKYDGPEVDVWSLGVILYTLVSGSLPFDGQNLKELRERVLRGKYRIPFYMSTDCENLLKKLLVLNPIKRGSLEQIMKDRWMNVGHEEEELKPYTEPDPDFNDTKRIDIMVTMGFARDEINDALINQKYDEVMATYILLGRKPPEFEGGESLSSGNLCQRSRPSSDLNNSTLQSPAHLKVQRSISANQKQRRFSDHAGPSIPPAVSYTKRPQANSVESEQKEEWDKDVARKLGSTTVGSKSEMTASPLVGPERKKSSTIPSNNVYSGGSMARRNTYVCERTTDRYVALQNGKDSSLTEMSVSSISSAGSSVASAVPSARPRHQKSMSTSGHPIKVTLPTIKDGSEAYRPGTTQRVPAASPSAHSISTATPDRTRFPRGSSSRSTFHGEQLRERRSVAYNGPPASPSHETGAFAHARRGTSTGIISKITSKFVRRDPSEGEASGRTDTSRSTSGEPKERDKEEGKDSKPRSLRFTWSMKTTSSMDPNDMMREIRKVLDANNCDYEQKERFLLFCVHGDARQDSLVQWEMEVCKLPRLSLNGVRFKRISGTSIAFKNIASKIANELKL

[3] = biological target: T1, kinases (KINOMEscan panel) (Homo sapiens, UniProt Q56UN5); conditions: Published KINOMEscan; ref original PKIS2 published data; cited from earlier work
T1 sequence (Q56UN5 1-1328): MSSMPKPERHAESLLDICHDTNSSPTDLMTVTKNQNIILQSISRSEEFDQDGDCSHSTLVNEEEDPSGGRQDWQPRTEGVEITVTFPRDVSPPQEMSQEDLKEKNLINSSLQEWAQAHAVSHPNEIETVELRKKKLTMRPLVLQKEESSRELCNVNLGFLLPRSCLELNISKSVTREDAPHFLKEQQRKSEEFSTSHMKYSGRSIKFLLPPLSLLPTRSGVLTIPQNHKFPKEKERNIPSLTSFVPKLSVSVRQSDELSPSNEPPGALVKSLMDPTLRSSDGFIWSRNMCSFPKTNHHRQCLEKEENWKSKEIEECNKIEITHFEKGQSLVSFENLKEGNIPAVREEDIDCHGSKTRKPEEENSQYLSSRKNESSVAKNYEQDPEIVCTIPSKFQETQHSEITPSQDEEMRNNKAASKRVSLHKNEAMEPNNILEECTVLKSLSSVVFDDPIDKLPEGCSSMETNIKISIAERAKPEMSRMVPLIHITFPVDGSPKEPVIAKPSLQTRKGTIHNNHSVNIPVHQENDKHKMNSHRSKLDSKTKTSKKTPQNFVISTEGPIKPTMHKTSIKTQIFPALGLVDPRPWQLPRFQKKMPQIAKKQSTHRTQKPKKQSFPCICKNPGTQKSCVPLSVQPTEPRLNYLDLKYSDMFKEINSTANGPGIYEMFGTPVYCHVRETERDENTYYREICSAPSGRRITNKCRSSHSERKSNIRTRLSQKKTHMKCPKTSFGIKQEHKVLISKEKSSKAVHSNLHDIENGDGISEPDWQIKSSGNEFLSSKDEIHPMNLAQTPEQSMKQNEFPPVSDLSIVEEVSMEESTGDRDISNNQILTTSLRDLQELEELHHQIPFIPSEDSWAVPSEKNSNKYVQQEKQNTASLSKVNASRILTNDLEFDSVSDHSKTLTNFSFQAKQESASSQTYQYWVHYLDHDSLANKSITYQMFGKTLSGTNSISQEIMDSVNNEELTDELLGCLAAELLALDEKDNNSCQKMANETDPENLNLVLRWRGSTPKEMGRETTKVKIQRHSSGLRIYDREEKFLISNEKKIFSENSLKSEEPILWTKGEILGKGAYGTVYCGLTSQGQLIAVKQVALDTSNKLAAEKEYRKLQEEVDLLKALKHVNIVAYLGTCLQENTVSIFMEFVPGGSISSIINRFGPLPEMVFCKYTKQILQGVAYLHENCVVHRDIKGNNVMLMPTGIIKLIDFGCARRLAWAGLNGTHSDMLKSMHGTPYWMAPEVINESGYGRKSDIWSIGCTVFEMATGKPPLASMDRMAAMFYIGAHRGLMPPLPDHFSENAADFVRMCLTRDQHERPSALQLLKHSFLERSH

[4] = biological target: kinases (KINOMEscan panel) (Homo sapiens, UniProt Q8TDX7); conditions: NEK7; Published KINOMEscan; ref original PKIS2 published data; cited from earlier work
Chain of kinases (KINOMEscan panel) (Homo sapiens, UniProt Q8TDX7) (Q8TDX7 whole entry): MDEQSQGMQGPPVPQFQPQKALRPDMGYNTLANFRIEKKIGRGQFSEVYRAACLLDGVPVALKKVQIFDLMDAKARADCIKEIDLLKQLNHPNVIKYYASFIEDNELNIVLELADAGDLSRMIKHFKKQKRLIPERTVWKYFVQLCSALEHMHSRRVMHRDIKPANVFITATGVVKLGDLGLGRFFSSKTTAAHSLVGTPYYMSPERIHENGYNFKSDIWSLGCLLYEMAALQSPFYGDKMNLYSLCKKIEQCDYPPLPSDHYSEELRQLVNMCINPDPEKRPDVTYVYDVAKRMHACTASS

[5] = biological target: kinases (KINOMEscan panel) (Homo sapiens, UniProt Q9NYY3); conditions: PLK2; Published KINOMEscan; ref original PKIS2 published data; cited from earlier work
Chain of kinases (KINOMEscan panel) (Homo sapiens, UniProt Q9NYY3) (Q9NYY3 whole entry): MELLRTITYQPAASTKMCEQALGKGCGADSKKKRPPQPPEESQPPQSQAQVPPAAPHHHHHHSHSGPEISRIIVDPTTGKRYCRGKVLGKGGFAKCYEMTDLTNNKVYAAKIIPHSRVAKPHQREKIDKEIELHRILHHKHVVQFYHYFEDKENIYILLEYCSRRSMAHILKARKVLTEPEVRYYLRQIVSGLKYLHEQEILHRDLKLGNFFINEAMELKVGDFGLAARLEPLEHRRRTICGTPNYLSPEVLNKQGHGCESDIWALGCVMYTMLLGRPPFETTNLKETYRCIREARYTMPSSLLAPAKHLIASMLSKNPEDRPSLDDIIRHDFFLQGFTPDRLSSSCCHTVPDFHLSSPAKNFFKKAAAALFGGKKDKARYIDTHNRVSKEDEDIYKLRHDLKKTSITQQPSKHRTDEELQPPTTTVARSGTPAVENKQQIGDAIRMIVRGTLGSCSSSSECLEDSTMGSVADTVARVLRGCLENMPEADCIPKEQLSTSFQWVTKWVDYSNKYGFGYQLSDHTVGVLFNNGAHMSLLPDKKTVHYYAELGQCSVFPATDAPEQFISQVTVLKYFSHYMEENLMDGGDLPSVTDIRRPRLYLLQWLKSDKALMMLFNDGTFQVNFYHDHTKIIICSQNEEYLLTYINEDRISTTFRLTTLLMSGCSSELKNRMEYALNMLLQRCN

[6] = biological target: kinases (KINOMEscan panel) (Homo sapiens, UniProt P23458); conditions: JAK1(JH1domain-catalytic); Published KINOMEscan; ref original PKIS2 published data; cited from earlier work
Chain of kinases (KINOMEscan panel) (Homo sapiens, UniProt P23458) (P23458 whole entry): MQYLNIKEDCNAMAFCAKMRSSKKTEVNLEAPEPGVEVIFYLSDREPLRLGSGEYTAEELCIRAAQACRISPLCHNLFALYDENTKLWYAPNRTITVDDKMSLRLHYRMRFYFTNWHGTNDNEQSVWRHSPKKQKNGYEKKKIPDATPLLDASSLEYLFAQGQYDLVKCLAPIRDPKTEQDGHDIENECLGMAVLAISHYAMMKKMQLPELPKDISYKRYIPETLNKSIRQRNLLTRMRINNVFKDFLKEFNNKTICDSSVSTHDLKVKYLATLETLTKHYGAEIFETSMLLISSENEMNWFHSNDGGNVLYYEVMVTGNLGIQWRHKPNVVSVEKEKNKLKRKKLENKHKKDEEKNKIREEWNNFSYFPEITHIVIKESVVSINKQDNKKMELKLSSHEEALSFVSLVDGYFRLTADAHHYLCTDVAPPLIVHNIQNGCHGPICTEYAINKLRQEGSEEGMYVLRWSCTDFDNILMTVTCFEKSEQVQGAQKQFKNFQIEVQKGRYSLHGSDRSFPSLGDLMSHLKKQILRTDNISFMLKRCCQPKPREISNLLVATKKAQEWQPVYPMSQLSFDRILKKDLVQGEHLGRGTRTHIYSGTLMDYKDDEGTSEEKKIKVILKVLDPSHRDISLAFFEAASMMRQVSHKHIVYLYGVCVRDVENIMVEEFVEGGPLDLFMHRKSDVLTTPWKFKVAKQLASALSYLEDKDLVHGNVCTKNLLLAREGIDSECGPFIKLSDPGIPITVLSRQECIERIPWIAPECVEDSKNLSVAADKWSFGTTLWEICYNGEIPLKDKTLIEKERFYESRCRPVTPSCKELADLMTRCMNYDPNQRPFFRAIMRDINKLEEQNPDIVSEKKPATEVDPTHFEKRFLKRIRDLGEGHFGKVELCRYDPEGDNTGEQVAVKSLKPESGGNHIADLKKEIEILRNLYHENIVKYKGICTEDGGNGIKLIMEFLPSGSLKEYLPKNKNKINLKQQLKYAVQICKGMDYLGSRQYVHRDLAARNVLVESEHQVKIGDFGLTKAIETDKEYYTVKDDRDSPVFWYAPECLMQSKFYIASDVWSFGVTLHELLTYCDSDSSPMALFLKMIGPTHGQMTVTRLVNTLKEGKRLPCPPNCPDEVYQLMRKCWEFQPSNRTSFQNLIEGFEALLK

[7] = biological target: kinases (KINOMEscan panel) (Homo sapiens, UniProt Q06187); conditions: kinase BTK; Published KINOMEscan; ref original PKIS2 published data; cited from earlier work
Chain of kinases (KINOMEscan panel) (Homo sapiens, UniProt Q06187) (Q06187 whole entry): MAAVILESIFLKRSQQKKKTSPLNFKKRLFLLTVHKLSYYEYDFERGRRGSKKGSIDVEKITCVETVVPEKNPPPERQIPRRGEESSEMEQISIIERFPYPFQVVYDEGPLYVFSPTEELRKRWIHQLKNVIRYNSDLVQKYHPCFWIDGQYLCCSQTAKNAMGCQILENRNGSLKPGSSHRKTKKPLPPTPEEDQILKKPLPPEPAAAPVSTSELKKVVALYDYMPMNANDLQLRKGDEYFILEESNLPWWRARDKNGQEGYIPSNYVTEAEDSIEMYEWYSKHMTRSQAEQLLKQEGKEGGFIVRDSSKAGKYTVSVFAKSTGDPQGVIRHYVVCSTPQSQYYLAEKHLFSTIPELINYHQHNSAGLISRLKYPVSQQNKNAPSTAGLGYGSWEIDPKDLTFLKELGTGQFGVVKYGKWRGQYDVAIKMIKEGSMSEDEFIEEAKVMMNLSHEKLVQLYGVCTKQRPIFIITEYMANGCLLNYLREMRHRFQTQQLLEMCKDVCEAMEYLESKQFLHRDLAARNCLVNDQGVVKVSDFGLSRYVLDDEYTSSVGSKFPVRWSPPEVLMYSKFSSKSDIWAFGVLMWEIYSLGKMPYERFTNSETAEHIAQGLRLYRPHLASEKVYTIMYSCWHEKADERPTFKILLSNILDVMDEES

[8] = biological target: T2, kinases (KINOMEscan panel) (Homo sapiens, UniProt Q8IVH8); conditions: Published KINOMEscan; ref original PKIS2 published data; cited from earlier work
T2 sequence (Q8IVH8 1-894): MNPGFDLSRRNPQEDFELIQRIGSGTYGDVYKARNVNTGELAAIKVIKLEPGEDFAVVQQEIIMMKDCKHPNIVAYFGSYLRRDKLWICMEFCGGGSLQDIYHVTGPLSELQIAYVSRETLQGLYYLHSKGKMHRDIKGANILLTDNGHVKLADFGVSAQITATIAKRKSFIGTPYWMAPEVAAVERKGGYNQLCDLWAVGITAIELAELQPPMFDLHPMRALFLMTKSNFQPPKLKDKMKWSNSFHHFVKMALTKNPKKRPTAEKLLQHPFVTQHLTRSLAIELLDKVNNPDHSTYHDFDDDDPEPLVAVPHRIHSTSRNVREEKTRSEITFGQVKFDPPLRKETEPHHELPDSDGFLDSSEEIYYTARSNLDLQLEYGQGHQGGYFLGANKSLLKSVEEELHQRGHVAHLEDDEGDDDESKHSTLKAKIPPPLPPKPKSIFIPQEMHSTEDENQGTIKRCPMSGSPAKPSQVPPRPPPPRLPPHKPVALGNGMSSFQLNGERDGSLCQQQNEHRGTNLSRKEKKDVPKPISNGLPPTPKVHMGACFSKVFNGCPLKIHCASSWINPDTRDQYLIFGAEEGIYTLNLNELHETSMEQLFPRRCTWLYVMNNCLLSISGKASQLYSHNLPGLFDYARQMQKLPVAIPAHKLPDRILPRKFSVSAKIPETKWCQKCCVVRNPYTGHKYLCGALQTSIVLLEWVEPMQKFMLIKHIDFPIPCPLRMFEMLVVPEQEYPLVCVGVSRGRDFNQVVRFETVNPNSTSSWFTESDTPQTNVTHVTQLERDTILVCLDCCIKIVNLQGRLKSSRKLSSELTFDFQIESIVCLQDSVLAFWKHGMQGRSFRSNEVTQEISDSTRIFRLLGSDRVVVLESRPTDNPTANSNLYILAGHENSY

Chain of kinases (KINOMEscan panel) (Homo sapiens, UniProt P06213) (P06213 28-1382): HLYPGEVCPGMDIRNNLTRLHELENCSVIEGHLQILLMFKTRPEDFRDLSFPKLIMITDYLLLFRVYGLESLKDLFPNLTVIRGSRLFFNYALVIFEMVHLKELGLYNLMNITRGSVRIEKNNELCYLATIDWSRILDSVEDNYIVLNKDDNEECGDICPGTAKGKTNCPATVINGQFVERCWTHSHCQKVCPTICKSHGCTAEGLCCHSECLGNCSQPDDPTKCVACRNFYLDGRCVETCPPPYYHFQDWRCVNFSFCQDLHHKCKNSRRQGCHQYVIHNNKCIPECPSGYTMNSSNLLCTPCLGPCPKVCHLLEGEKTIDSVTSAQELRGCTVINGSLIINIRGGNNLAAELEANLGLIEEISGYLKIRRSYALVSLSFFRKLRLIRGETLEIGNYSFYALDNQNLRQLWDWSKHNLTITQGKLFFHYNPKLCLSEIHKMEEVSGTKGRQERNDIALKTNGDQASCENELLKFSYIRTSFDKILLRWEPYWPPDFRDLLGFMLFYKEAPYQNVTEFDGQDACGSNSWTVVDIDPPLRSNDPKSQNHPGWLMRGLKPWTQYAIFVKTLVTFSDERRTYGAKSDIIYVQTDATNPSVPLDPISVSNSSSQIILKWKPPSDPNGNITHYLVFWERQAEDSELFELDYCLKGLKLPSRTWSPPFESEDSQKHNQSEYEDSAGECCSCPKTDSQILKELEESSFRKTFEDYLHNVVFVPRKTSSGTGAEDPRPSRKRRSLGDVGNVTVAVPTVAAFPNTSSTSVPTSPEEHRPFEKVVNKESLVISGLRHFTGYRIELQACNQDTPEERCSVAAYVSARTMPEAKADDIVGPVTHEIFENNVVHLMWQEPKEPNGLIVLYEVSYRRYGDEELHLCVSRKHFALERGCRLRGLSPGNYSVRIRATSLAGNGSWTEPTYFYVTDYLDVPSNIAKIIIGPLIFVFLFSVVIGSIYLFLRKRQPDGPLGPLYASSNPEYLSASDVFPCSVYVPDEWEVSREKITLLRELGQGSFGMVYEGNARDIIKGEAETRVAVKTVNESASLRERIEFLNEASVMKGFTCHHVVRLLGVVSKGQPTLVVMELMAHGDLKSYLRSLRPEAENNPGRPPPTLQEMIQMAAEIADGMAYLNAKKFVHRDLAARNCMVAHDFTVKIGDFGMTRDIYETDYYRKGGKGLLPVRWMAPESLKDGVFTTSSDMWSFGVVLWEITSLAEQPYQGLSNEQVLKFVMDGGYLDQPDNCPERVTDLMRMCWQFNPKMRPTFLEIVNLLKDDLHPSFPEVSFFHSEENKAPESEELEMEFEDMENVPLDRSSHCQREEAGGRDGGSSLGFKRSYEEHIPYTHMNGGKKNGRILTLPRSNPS

Question: Which “KINOMEscan INSR” value [1] does the source give for `Cc1cccc(-c2nc(Nc3ccncc3)c3ccccc3n2)n1` [NK215] here?
Answer: Its value is 7.

Question: What about the “KINOMEscan MARK1” value [2] of the same compound?
Answer: The value was 0.

Question: And the “KINOMEscan MAP3K19” value [3]?
Answer: The value was 0.

Question: What about the “KINOMEscan NEK7” value [4] of the same compound?
Answer: Its value is 0.

Question: And the “KINOMEscan PLK2” value [5]?
Answer: The value was 0.

Question: And the “KINOMEscan JAK1(JH1domain-catalytic)” value [6]?
Answer: Its value is 0.

Question: And the “KINOMEscan BTK” value [7]?
Answer: Its value is 0.

Question: What about the “KINOMEscan MAP4K3” value [8] of the same compound?
Answer: Its value is 0.
